# According to patent publication US20230373989A1, “N-PHENYLAMINOCARBONYL PYRIDINO-, PYRIMIDINO AND BENZO-TROPANES AS MODULATORS OF GPR65” (PATHIOS THERAPEUTICS LIMITED, priority 2020, published 2023):
# Biological target: T1, human recombinant GPR65 (Homo sapiens, UniProt Q8IYL9)
# T1 construct: host or cells: 1321N1 human astrocytoma cells (1321N1-hrGPR65)
# Test: Human GPR65 cAMP HTRF antagonist assay
# Assay type: cell-based
# Details: not given
# Description: In one preferred embodiment, the compound prevents the increase in cytoplasmic cAMP levels expected following GPR65 activation at acidic pH. This prevention of cAMP accumulation in turn prevents downstream signalling through ICER, as described above. The “Human GPR65 cyclic adenosine monophosphate (cAMP) Homogeneous Time Resolved Fluorescence (HTRF) antagonist assay”, or simply “cAMP assay”, as described in the accompanying examples, can be used to measure the potency of GPR65 modulators, which is expressed as the concentration of compound required to reduce the increase in cAMP concentration upon GPR65 activation by 50% (i.e. an IC50).
# Human GPR65 Cyclic Adenosine Monophosphate (cAMP) Homogeneous Time Resolved Fluorescence (HTRF) Antagonist Assay Procedure
# IC50 data was obtained by the following procedure:
# 1321N1 human astrocytoma cells stably expressing human recombinant GPR65 (1321N1-hrGPR65 cells, EuroscreenFast) were cultured according to the vendor's instructions.
# Compounds were tested for their ability to antagonise GPR65, through measuring the concentration of cytoplasmic cAMP following treatment of the cells at a pH of 7.2 to activate GPR65 signalling and addition of the compound to be tested. The extent to which the expected rise in cAMP concentration upon GPR65 activation was suppressed by the added compound is indicative of its potency. The assay was carried out according to EuroscreenFast assay methodology as follows.
# On the day of the assay, test compounds were added to 384-well, low volume, white microtiter plates by acoustic dispensing. KRH buffer (5 mM KCl, 1.25 mM MgSO4, 124 mM NaCl, 25 mM HEPES, 13.3 mM Glucose, 1.25 mM KH2PO4 and 1.45 mM CaCl2) was adjusted to pH 6.5, pH 7.6 and pH 8.4 by adding NaOH. 1321N1-hGPR65 cells were rapidly thawed and diluted in KRH, pH 7.6 prior to centrifugation at 300×g for 5 min and resuspension in assay buffer (KRH, pH 7.6, supplemented with 1 mM 3-isobutyl-1-methylxanthine (IBMX) and 200 μM ethylenediaminetetraacetic acid (EDTA)). Cells were added to assay plates at a density of 2,000 cells per well in a volume of 5 μl. Assay plates were briefly centrifuged at 100×g and then incubated at room temperature for 30 min. Cells were stimulated by the addition of 5 μL KRH, pH 6.5, to achieve an assay pH of 7.2, while control wells received 5 μl KRH, pH 8.4 to achieve an assay pH of 7.9. Assay plates were briefly centrifuged at 100×g and then incubated at room temperature for 30 min.
# Accumulation of cAMP was detected by cAMP HTRF kit (Cisbio). d2-labeled cAMP and cryptate-labeled anti-cAMP antibody in Lysis and Detection Buffer (Cisbio) were added to assay plates, and the plates were incubated at room temperature for 1 h. HTRF measurements were performed using a Pherastar FSX instrument. Acceptor and donor emission signals were measured at 665 nm and 620 nm, respectively, and HTRF ratios were calculated as signal665 nm/signal620 nm×104. Data were normalised to high and low control values and fitted with 4-parameter logistic regression to determine hGPR65 IC50 values for the test compounds, which are shown in Table 1.
# T1 sequence (Q8IYL9 whole entry): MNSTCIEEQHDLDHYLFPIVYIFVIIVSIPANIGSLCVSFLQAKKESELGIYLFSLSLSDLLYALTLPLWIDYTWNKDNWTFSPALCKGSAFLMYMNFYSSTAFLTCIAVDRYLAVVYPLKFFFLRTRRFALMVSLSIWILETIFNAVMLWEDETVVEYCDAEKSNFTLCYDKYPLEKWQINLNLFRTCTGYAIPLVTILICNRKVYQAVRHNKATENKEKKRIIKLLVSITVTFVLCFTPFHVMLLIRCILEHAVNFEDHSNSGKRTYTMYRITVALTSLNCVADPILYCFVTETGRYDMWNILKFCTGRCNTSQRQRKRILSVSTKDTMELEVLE
row,SMILES,IC50 [µM]
1,"O=C(Nc1ccc(Cl)c(Cl)c1)N1C2CCC1c1cncnc1C2 (racemic) [Compound 48, (±)-N-(3,4-dichlorophenyl)-6,7,8,9-tetrahydro-5H-5,8-epiminocyclohepta[d]pyrimidine-10-carboxamide]",< 0.5
2,"O=C(Nc1ccc(OC(F)(F)F)cc1)N1C2CCC1c1ccnc(F)c1C2 (racemic) [Compound 157, (±)-1-Fluoro-N-(4-(trifluoromethoxy)phenyl)-6,7,8,9-tetrahydro-5H-5,8-epiminocyclohepta[c]pyridin-10-carboxamide]",< 0.5
3,"Cc1ncoc1-c1ccc(NC(=O)N2[C@H]3CC[C@@H]2c2ccnc(F)c2C3)cc1 [Compound 187, (5R,8S)-1-Fluoro-N-(4-(4-methyloxazol-5-yl)phenyl)-6,7,8,9-tetrahydro-5H-5,8-epiminocyclohepta[c]pyridine-10-carboxamide]",0.5 to 5
4,"O=C(Nc1ccc(Cl)c(C(F)(F)F)c1)N1[C@H]2CC[C@@H]1c1cncnc1C2 [Compound 42, (5R,8S)-N-(4-Chloro-3-(trifluoromethyl)phenyl)-6,7,8,9-tetrahydro-5H-5,8-epiminocyclohepta[d]pyrimidine-10-carboxamide]",< 0.5
5,"O=C(Nc1ccc(Cl)c(Cl)c1)N1[C@H]2CC[C@@H]1c1c[nH]c(=O)nc1C2 [Compound 106, (5R,8S)-N-(3,4-Dichlorophenyl)-2-oxo-3,5,6,7,8,9-hexahydro-2H-5,8-epiminocyclohepta[d]pyrimidine-10-carboxamide]",< 0.5
6,"O=C(Nc1ccc(C(F)(F)F)c(Cl)c1)N1[C@H]2CC[C@@H]1c1c[nH]c(=O)nc1C2 [Compound 43, (5R,8S)-N-(3-Chloro-4-(trifluoromethyl)phenyl)-2-oxo-3,5,6,7,8,9-hexahydro-2H-5,8-epiminocyclohepta[d]pyrimidine-10-carboxamide]",< 0.5
7,O=C(Nc1ccc(Cl)c(Cl)c1)N1[C@H]2CC[C@@H]1c1cc[n+]([O-])cc1C2 [Compound 92],< 0.5
8,"O=C(Nc1cc(Cl)c(C(F)(F)F)cc1F)N1[C@@H]2CC[C@H]1c1c[nH]c(=O)c(F)c1C2 [Compound 147, (6R,9S)-N-(5-Chloro-2-fluoro-4-(trifluoromethyl)phenyl)-4-fluoro-3-oxo-3,5,6,7,8,9-hexahydro-2H-6,9-epiminocyclohepta[c]pyridine-10-carboxamide]",< 0.5
9,"O=C(Nc1cc(Cl)c(C(F)(F)F)cc1F)N1C2CCC1c1c[nH]c(=O)c(F)c1C2 (racemic) [Compound 138, (±)-N-(5-Chloro-2-fluoro-4-(trifluoromethyl)phenyl)-4-fluoro-3-oxo-3,5,6,7,8,9-hexahydro-2H-6,9-epiminocyclohepta[c]pyridine-10-carboxamide]",< 0.5
10,"O=C(Nc1cccc(Br)c1)N1C2CCC1c1ccnc(F)c1C2 (racemic) [Compound 170, (±)-N-(3-Bromophenyl)-1-fluoro-6,7,8,9-tetrahydro-5H-5,8-epiminocyclohepta[c]pyridine-10-carboxamide]",< 0.5
11,"O=C(Nc1ccc(C(F)(F)F)cc1F)N1[C@H]2CC[C@@H]1c1ccnc(F)c1C2 [Compound 120, (5R,8S)-1-Fluoro-N-(2-fluoro-4-(trifluoromethyl)phenyl)-6,7,8,9-tetrahydro-5H-5,8-epiminocyclohepta[c]pyridine-10-carboxamide]",< 0.5
12,"COC(=O)c1ccc(NC(=O)N2[C@H]3CC[C@@H]2c2ccnc(F)c2C3)cc1Cl [Compound 122, Methyl 2-chloro-4-((5R,8S)-1-fluoro-6,7,8,9-tetrahydro-5H-5,8-epiminocyclohepta[c]pyridine-10-carboxamido)benzoate]",< 0.5

# Same assay, conditions: 1321N1-hrGPR65 cells, assay pH 7.2, cAMP HTRF; read-out: hGPR65 IC50 (activity class)
row,SMILES,IC50 [µM]
1,"O=C(Nc1cc(Cl)ccc1F)N1C2CCC1c1cncnc1C2 (racemic) [Compound 51, (±)-N-(5-Chloro-2-fluorophenyl)-6,7,8,9-tetrahydro-5H-5,8-epiminocyclohepta[d]pyrimidine-10-carboxamide]",0.5 to 5
2,"O=C(Nc1ccc(Cl)c(Cl)c1)N1[C@@H]2CC[C@H]1c1ccnc(F)c1C2 [Compound 110, (5S,8R)-N-(3,4-Dichlorophenyl)-1-fluoro-6,7,8,9-tetrahydro-5H-5,8-epiminocyclohepta[c]pyridine-10-carboxamide]",> 5
3,"O=C(Nc1ccc(C(F)(F)F)cc1)N1C2CCC1c1cncnc1C2 (racemic) [Compound 1, (±)-N-(4-(Trifluoromethyl)phenyl)-6,7,8,9-tetrahydro-5H-5,8-epiminocyclohepta[d]pyrimidine-10-carboxamide]",0.5 to 5
4,"O=C(Nc1ccc(Cl)c(Cl)c1)N1C2CCC1c1c(ccnc1F)C2 (racemic) [Compound 68, (±)-N-(3,4-Dichlorophenyl)-1-fluoro-6,7,8,9-tetrahydro-5H-6,9-epiminocyclohepta[c]pyridine-10-carboxamide]",0.5 to 5
5,"O=C(Nc1cccc(Cl)c1)N1C2CCC1c1cncnc1C2 (racemic) [Compound 50, (±)-N-(3-Chlorophenyl)-6,7,8,9-tetrahydro-5H-5,8-epiminocyclohepta[d]pyrimidine-10-carboxamide]",> 5
6,"COc1ccc2c(c1)CC1CCC2N1C(=O)Nc1ccc(Cl)c(Cl)c1 (racemic) [Compound 56, (±)-N-(3,4-Dichlorophenyl)-2-methoxy-6,7,8,9-tetrahydro-5H-5,8-epiminobenzo[7]annulene-10-carboxamide]",0.5 to 5
7,"CC(C)(C)Nc1cc2c(cn1)CC1CCC2N1C(=O)Nc1ccc(Cl)c(Cl)c1 (racemic) [Compound 66, (±)-3-(tert-Butylamino)-N-(3,4-dichlorophenyl)-6,7,8,9-tetrahydro-5H-5,8-epiminocyclohepta[c]pyridine-10-carboxamide]",0.5 to 5
8,"O=C(Nc1ccc(F)c(F)c1)N1C2CCC1c1cncnc1C2 (racemic) [Compound 6, (±)-N-(3,4-Difluorophenyl)-6,7,8,9-tetrahydro-5H-5,8-epiminocyclohepta[d]pyrimidine-10-carboxamide]",> 5
9,"O=C(Nc1ccc(F)c(C(F)(F)F)c1)N1C2CCC1c1cncnc1C2 (racemic) [Compound 5, (±)-N-(4-Fluoro-3-(trifluoromethyl)phenyl)-6,7,8,9-tetrahydro-5H-5,8-epiminocyclohepta[d]pyrimidine-10-carboxamide]",> 5
10,"O=C(Nc1ccc(F)cc1F)N1C2CCC1c1ccnc(F)c1C2 (racemic) [Compound 162, (±)-N-(2,4-Difluorophenyl)-1-fluoro-6,7,8,9-tetrahydro-5H-5,8-epiminocyclohepta[c]pyridin-10-carboxamide]",0.5 to 5
11,"CC(C)(C)Nc1nccc2c1CC1CCC2N1C(=O)Nc1ccc(Cl)c(Cl)c1 (racemic) [Compound 65, (±)-1-(tert-Butylamino)-N-(3,4-dichlorophenyl)-6,7,8,9-tetrahydro-5H-5,8-epiminocyclohepta[c]pyridine-10-carboxamide]",0.5 to 5
12,"O=C(Nc1ccc(Cl)c(C(F)(F)F)c1)N1C2CCC1c1cnc(-c3ccccc3)nc1C2 (racemic) [Compound 28, (±)-N-(4-Chloro-3-(trifluoromethyl)phenyl)-2-phenyl-6,7,8,9-tetrahydro-5H-5,8-epiminocyclohepta[d]pyrimidine-10-carboxamide]",> 5
13,"O=C(Nc1cc(Cl)c(C(F)(F)F)cc1F)N1C2CCC1c1c(Cl)nnc(Cl)c1C2 (racemic) [Compound 195, (±)-1,4-Dichloro-N-(5-chloro-2-fluoro-4-(trifluoromethyl)phenyl)-6,7,8,9-tetrahydro-5H-5,8-epiminocyclohepta[d]pyridazine-10-carboxamide]",0.5 to 5
14,"O=C(Nc1ccc(Cl)c(Cl)c1)N1C2CCC1C(F)c1ncncc12 (racemic) [Compound 114, trans-(±)-N-(3,4-Dichlorophenyl)-9-fluoro-6,7,8,9-tetrahydro-5H-5,8-epiminocyclohepta[d]pyrimidine-10-carboxamide]",0.5 to 5
15,"Cc1ncc2c(n1)CC1CCC2N1C(=O)Nc1ccc(Cl)c(Cl)c1 (racemic) [Compound 25, (±)-N-(3,4-Dichlorophenyl)-2-methyl-6,7,8,9-tetrahydro-5H-5,8-epiminocyclohepta[d]pyrimidine-10-carboxamide]",> 5
